Measured values taken from the supplement of paper PMC10307832.

How the values were obtained:
Assay in all cases: relative viability (nuclei count vs DMSO), 5 days (fraction); higher = more cells survive
Lapatinib + OSI-027 = compound: CS(=O)(=O)CCNCc1ccc(-c2ccc3ncnc(Nc4ccc(OCc5cccc(F)c5)c(Cl)c4)c3c2)o1 [Lapatinib] + COc1cccc2cc(-c3nc([C@H]4CC[C@H](C(=O)O)CC4)n4ncnc(N)c34)[nH]c12 [OSI-027] (partner 0.5 µM)
In short: (§1)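 Lung cancer cell lines were seeded in 1536-well plates and dosed by pin tool the next day, with either a single drug or a fixed anchor-drug dose combined with five library-drug doses (not always all listed) spaced in √10 steps. Five days later, one step fixed the cells and stained their nuclei (final 0.05% Triton X-100, 1% formaldehyde, 1 ug/ml Hoechst), and nuclei were counted on 4× images. Relative viability is the nuclei count in treated wells divided by the count in vehicle wells, and each value is the median of duplicate plates.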

Wnt-C59 + Decitabine = compound: CC1=NC=CC(=C1)C2=CC=C(C=C2)CC(=O)NC3=CC=C(C=C3)C4=CN=CC=C4 [Wnt-C59] + Nc1ncn([C@H]2C[C@H](O)[C@@H](CO)O2)c(=O)n1 [Decitabine] (partner 2 µM)
In short: as §1

Lapatinib + Dasatinib = compound: CS(=O)(=O)CCNCc1ccc(-c2ccc3ncnc(Nc4ccc(OCc5cccc(F)c5)c(Cl)c4)c3c2)o1 [Lapatinib] + Cc1nc(Nc2ncc(C(=O)Nc3c(C)cccc3Cl)s2)cc(N2CCN(CCO)CC2)n1 [Dasatinib] (partner 0.075 µM)
In short: as §1

Lapatinib + Vorinostat = compound: CS(=O)(=O)CCNCc1ccc(-c2ccc3ncnc(Nc4ccc(OCc5cccc(F)c5)c(Cl)c4)c3c2)o1 [Lapatinib] + O=C(CCCCCCC(=O)Nc1ccccc1)NO [Vorinostat] (partner 1 µM)
In short: as §1

Cell Line	relative viability (Lapatinib + OSI-027; first compound 0.02 µM)	relative viability (Lapatinib + OSI-027; first compound 0.06325 µM)	relative viability (Lapatinib + OSI-027; first compound 0.2 µM)	relative viability (Lapatinib + OSI-027; first compound 0.6325 µM)	relative viability (Lapatinib + OSI-027; first compound 2 µM)	relative viability (Wnt-C59 + Decitabine; first compound 0.001 µM)	relative viability (Wnt-C59 + Decitabine; first compound 0.01 µM)	relative viability (Wnt-C59 + Decitabine; first compound 0.03162 µM)	relative viability (Wnt-C59 + Decitabine; first compound 0.1 µM)	relative viability (Lapatinib + Dasatinib; first compound 0.02 µM)	relative viability (Lapatinib + Dasatinib; first compound 0.06325 µM)	relative viability (Lapatinib + Dasatinib; first compound 0.2 µM)	relative viability (Lapatinib + Dasatinib; first compound 0.6325 µM)	relative viability (Lapatinib + Dasatinib; first compound 2 µM)	relative viability (Lapatinib + Vorinostat; first compound 0.02 µM)	relative viability (Lapatinib + Vorinostat; first compound 0.06325 µM)	relative viability (Lapatinib + Vorinostat; first compound 0.2 µM)	relative viability (Lapatinib + Vorinostat; first compound 0.6325 µM)	relative viability (Lapatinib + Vorinostat; first compound 2 µM)
201T	0.794	0.598	0.597	0.807	0.703	0.861	0.824	0.902	0.812	0.566	0.382	0.596	0.62	0.599	0.48	0.78	0.89	0.938	0.854
A549	–	–	–	–	–	0.222	0.247	0.247	0.225	–	–	–	–	–	–	–	–	–	–
A-427	–	0.359	0.516	0.541	0.417	0.623	0.564	0.615	0.588	–	0.664	0.825	0.745	0.692	0.839	0.841	0.862	0.833	0.845
ABC-1	0.532	0.321	0.706	0.702	0.477	1.08	1.14	1.05	0.938	0.538	0.584	0.513	0.662	0.56	0.929	1.02	–	1	1.18
BEN	–	0.279	0.298	0.288	0.25	0.667	0.741	0.807	0.782	–	0.307	0.303	0.28	0.358	0.506	0.587	0.586	0.559	0.51
CAL-12T	–	0.32	0.497	0.319	0.313	–	–	–	–	–	0.216	0.271	0.236	0.131	0.655	0.624	0.755	0.71	0.424
COR-L23	0.771	0.651	0.769	0.721	0.654	0.489	0.47	0.493	0.525	0.501	0.441	0.508	0.565	0.443	0.422	0.522	0.558	0.553	0.393
COR-L 105	0.638	0.362	0.449	0.413	0.269	0.613	0.618	0.663	0.586	0.266	0.238	0.277	0.232	0.205	0.773	0.825	0.779	0.42	0.589
ChaGo-K-1	0.341	0.391	0.585	0.53	0.462	0.56	0.484	0.534	0.534	0.43	0.531	0.544	0.527	0.592	0.53	0.731	0.747	0.78	0.545
EKVX	0.594	0.502	0.575	0.58	0.325	0.313	–	0.417	0.374	–	0.321	0.423	0.384	0.196	–	0.476	0.48	0.426	0.26
EMC-BAC-2	0.339	0.277	0.377	0.392	0.346	0.932	0.914	0.89	0.89	0.294	0.162	0.349	0.358	0.279	–	0.336	–	0.531	0.522
EPLC-272H	–	–	0.256	0.227	0.224	0.443	0.369	0.472	0.364	–	–	0.359	0.367	0.272	0.636	0.328	0.457	0.583	0.391
H3255	0.577	0.524	0.505	0.431	0.236	0.62	0.601	0.668	0.515	0.316	0.325	0.315	0.288	0.18	–	0.697	0.741	0.816	0.293
HARA	–	0.214	0.474	0.328	0.239	0.604	0.455	0.543	0.587	–	0.195	0.244	0.242	0.19	–	0.452	0.443	0.467	0.427
HCC-15	–	0.386	0.682	0.727	0.612	0.621	0.607	0.661	0.606	–	0.403	0.591	0.622	0.551	–	0.779	0.813	0.858	0.693
HCC-44	–	0.341	0.509	0.421	0.473	1.01	0.963	0.95	0.939	–	–	–	–	–	1.07	1.11	1.16	1.16	0.916
HCC-78	–	0.324	0.315	0.381	0.344	0.695	0.754	0.734	0.641	–	0.42	0.333	0.464	0.411	–	0.318	0.39	0.388	0.375
HCC-366	–	0.58	0.838	0.859	0.373	0.317	0.427	0.342	0.387	–	0.493	0.572	0.722	0.544	–	0.275	0.391	0.352	0.202
HCC-827	0.54	0.7	0.691	0.71	0.661	0.399	0.331	0.385	0.334	0.334	0.313	0.281	0.377	0.155	0.76	0.868	0.706	0.802	0.869
HOP-62	0.486	0.756	0.89	0.866	0.914	0.19	0.238	0.227	0.231	0.508	0.633	0.615	0.69	0.566	–	0.631	0.639	0.678	0.655

Cell Line	relative viability (Lapatinib + OSI-027; first compound 0.02 µM)	relative viability (Lapatinib + OSI-027; first compound 0.06325 µM)	relative viability (Lapatinib + OSI-027; first compound 0.2 µM)	relative viability (Lapatinib + OSI-027; first compound 0.6325 µM)	relative viability (Lapatinib + OSI-027; first compound 2 µM)	relative viability (Wnt-C59 + Decitabine; first compound 0.001 µM)	relative viability (Wnt-C59 + Decitabine; first compound 0.01 µM)	relative viability (Wnt-C59 + Decitabine; first compound 0.03162 µM)	relative viability (Wnt-C59 + Decitabine; first compound 0.1 µM)	relative viability (Lapatinib + Dasatinib; first compound 0.02 µM)	relative viability (Lapatinib + Dasatinib; first compound 0.06325 µM)	relative viability (Lapatinib + Dasatinib; first compound 0.2 µM)	relative viability (Lapatinib + Dasatinib; first compound 0.6325 µM)	relative viability (Lapatinib + Dasatinib; first compound 2 µM)	relative viability (Lapatinib + Vorinostat; first compound 0.02 µM)	relative viability (Lapatinib + Vorinostat; first compound 0.06325 µM)	relative viability (Lapatinib + Vorinostat; first compound 0.2 µM)	relative viability (Lapatinib + Vorinostat; first compound 0.6325 µM)	relative viability (Lapatinib + Vorinostat; first compound 2 µM)
IA-LM	–	–	–	–	–	–	–	–	–	–	–	–	–	–	–	0.795	–	0.916	0.885
LC-2-ad	–	0.49	0.767	0.764	0.619	0.756	0.714	0.927	0.772	–	0.382	0.687	0.514	0.465	–	0.632	0.763	0.623	0.672
LCLC-97TM1	–	–	0.564	0.497	0.503	0.262	0.266	0.227	0.238	–	–	0.854	0.91	0.875	–	0.316	0.953	0.681	0.687
LCLC-103H	0.409	0.372	0.429	0.417	0.436	0.729	0.758	0.785	0.698	0.312	0.378	0.455	0.511	0.416	0.582	0.65	0.768	0.779	0.692
LK-2	0.217	–	0.228	0.238	0.228	0.319	0.329	0.319	0.323	–	–	0.264	0.283	0.35	0.173	–	0.222	0.325	0.357
LOU-NH91	0.608	0.577	0.51	0.589	0.453	0.873	0.838	0.83	0.822	0.365	0.398	0.431	0.46	0.404	0.398	0.675	0.856	0.824	0.769
LU99A	0.283	0.244	0.297	0.293	0.284	0.943	0.937	0.897	0.878	0.492	0.408	0.453	0.587	0.475	0.49	0.358	0.506	0.426	0.469
LXF-289	0.16	0.477	0.796	0.714	0.723	0.396	0.369	0.446	0.386	0.0714	0.116	0.224	0.273	0.179	0.474	0.709	0.83	0.664	0.673
NCI-H23	–	–	0.51	0.639	0.504	0.292	0.29	0.35	0.325	–	–	0.688	0.762	0.738	–	–	0.624	0.746	0.555
NCI-H322M	0.591	0.374	0.571	0.46	0.431	0.729	0.655	0.666	0.63	0.287	0.238	0.246	0.226	0.225	0.947	0.749	0.786	0.92	0.683
NCI-H358	0.567	0.285	0.439	0.285	0.215	0.223	0.207	0.295	0.213	0.138	0.0919	0.127	0.0982	0.14	0.596	0.418	0.511	0.362	0.215
NCI-H441	–	0.34	0.53	0.559	0.617	0.232	0.226	0.246	0.166	–	0.263	0.562	0.557	0.592	0.713	–	0.84	0.757	0.887
NCI-H460	0.544	0.438	0.481	0.533	0.477	0.503	0.488	0.594	0.465	0.496	0.345	0.372	0.624	0.452	0.671	0.67	0.815	0.715	0.533
NCI-H520	0.276	0.181	0.321	0.266	0.232	0.48	0.532	0.537	0.504	0.235	0.161	0.265	0.178	0.187	0.7	0.684	0.707	0.671	0.76
NCI-H522	–	0.565	0.658	0.681	0.589	0.707	0.739	0.782	0.666	–	0.907	0.901	0.67	0.787	–	0.822	1	0.839	0.902
NCI-H1563	0.716	0.654	0.772	0.715	0.715	–	–	–	–	0.505	0.405	0.425	0.491	0.435	–	–	–	–	–
NCI-H1623	0.377	0.367	0.407	0.387	0.246	–	–	–	–	0.541	0.491	–	0.578	0.21	–	–	–	–	–
NCI-H1648	0.266	0.306	0.289	0.288	0.268	0.581	0.405	0.496	0.561	–	–	–	–	–	–	0.271	0.389	0.587	0.287
NCI-H1792	0.665	–	0.558	0.533	0.31	0.636	0.524	0.536	0.506	0.763	–	0.754	0.68	0.425	–	–	–	–	–
NCI-H2228	0.395	0.36	0.482	0.568	0.478	–	–	–	–	0.397	0.426	0.606	0.52	0.49	0.774	0.7	0.907	0.517	0.48
